Source: paper PMC7396987, “Biological Activity of Pseudovitamin B12 on Cobalamin-Dependent Methylmalonyl-CoA Mutase and Methionine Synthase in Mammalian Cultured COS-7 Cells” (Molecules, 2020)
pKd: −log10 of the molar value.

Biological target: T1, human MS (hMS; recombinant FLAG-tagged methionine synthase) (Homo sapiens, UniProt Q99707)
T1 construct: gene MTR; full-length ORF from human brain cerebral cortex cDNA in p3xFLAG-Myc-CMV (p3xFLAG-hMS), N-terminal 3xFLAG tag kept; expressed in COS-7 cells, apoenzyme in cell homogenate (low endogenous monkey MS background)
Test: activation of apo-MS in cell homogenate, HPLC activity assay, saturation fit
Type: biochemical
Conditions: cobalamin reduced by titanium citrate; substrate 5-methyltetrahydrofolate; homogenate of MS cDNA-transfected COS-7 cells grown without OH-Cbl; read-out: apparent Kd

T1 sequence (Q99707 2-1265 limits assumed): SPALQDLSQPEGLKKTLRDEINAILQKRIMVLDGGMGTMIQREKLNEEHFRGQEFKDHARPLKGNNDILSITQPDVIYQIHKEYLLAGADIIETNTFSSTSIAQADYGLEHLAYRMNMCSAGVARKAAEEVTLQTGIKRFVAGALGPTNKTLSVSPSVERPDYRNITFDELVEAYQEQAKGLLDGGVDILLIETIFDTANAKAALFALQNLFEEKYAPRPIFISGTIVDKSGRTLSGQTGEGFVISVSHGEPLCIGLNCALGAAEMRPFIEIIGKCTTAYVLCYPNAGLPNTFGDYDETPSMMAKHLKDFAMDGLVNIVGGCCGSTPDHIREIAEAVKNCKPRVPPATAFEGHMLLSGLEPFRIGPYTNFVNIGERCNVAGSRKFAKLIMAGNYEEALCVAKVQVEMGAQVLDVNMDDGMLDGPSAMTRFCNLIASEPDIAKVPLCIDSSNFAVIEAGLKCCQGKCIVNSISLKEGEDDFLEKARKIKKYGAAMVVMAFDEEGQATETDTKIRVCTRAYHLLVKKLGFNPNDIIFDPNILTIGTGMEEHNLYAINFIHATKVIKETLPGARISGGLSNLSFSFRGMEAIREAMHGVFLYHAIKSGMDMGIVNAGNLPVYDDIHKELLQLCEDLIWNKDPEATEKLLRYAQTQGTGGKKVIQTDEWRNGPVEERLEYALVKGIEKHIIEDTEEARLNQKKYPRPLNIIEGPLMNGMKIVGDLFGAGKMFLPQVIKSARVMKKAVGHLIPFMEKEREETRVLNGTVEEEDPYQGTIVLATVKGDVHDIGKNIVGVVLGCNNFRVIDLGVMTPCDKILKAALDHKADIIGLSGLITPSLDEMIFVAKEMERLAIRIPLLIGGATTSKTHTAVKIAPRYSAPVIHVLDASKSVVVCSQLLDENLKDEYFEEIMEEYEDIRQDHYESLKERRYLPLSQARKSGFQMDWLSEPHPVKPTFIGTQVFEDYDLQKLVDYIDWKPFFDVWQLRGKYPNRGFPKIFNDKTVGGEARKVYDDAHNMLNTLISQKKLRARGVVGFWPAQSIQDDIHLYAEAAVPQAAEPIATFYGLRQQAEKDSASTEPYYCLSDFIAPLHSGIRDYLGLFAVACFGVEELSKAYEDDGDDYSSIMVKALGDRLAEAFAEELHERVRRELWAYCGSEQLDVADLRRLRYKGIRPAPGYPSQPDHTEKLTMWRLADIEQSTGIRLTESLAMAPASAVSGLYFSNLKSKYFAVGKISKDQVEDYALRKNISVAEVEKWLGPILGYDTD

pKd: ~4.58
Substance: (Ade)OH-Cba [compound 6]
